Experimental data published in PMC4773385, “Drug design from the cryptic inhibitor envelope” (Nature Communications, 2016).
In brackets after ≈: the same amount, converted by molar mass. Read-outs that look alike come from different tables or passages of the source.

Key:
Escherichia coli LpxC = target: T1, Escherichia coli LpxC (Escherichia coli, UniProt P0A725); test: LpxC enzymatic assay (radiolabelled substrate, slow tight-binding kinetics); format: biochemical
T1 sequence (P0A725 1-305): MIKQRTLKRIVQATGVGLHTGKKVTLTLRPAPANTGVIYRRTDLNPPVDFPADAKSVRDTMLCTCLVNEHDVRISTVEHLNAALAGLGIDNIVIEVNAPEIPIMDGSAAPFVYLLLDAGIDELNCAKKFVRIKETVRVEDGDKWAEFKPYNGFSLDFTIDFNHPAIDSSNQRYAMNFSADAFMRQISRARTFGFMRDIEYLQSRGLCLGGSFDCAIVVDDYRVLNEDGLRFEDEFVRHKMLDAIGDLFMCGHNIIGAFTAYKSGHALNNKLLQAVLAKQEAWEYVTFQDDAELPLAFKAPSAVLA
Protocol: The radiolabelled substrate for the LpxC enzymatic assays, [α-^32P] UDP-3-O-[(R)-3-hydroxymyristoyl]-N-acetylglucosamine, and the unlabelled carrier substrate were prepared as previously described. […] Serial twofold dilutions of each inhibitor were prepared in DMSO and added to the reaction mixture with a 10-fold dilution. The assays were initiated by addition of purified LpxC protein into the reaction mix with 1:4 dilution to the final concentration as specified.
The KM value was determined by varying substrate concentrations from 0.4 to 50 μM with 0.2 nM of LpxC. To study the slow, tight-binding inhibition, LpxC activity was assessed in the presence of varying inhibitor concentrations. […] The following time-dependent equation was used to fit the data: […]
The Ki* was determined by analysing the rate of product accumulation after formation of the stable EI* complex. […] The Morrison's quadratic equation was used to fit the fractional activity data to determine Ki^*app:
where [E]T and [I]T represent the total enzyme and inhibitor concentrations, respectively. The inhibition constant Ki* is converted from Ki^*app according to the following relationship:
For two-step slow-binding inhibition, kinetic parameters k5, k6 and Ki were extracted from curve fitting of experimental kobs values to inhibitor concentrations based on equations (5 and 6).

Escherichia coli W3110 = test: MIC assay; format: cell-based; conditions: for MIC: E. coli
[1] = tested on: Pseudomonas aeruginosa PAO1; test: MIC assay; format: cell-based
[2] = tested on: Salmonella typhimurium LT2; test: MIC assay; format: cell-based
[3] = tested on: Vibrio cholerae P4 (P27459DctxAB::KmR, SmR); test: MIC assay; format: cell-based; design: MIC: unit not given here
[4] = tested on: Klebsiella pneumoniae 10031; test: MIC assay; format: cell-based; design: MIC: unit not given here
Enterobacter cloacae = test: MIC assay; format: cell-based; design: MIC: unit not given here
Morganella morganii = test: MIC assay; format: cell-based
Proteus mirabilis = test: MIC assay; format: cell-based; design: MIC: unit not given here
Chlamydia trachomatis = test: Minimal chlamydiacidal concentration (MCC); format: cell-based; design: Minimal chlamydiacidal concentration (MCC), listed in MIC column: unit not given here
[5] = tested on: Acinetobacter baumannii 17978; test: MIC assay; format: cell-based
[6] = E. coli LpxC, 20 pM enzyme, 5 μM substrate, 30 °C, Morrison fit, read-out: Ki* (inhibition constant of the stable EI* complex)
[7] = fit of kobs vs inhibitor concentration, 30 μM substrate, 0.1 nM enzyme

C[C@](O)([C@H](NC(=O)c1ccc(C#CC#Cc2ccc(N)cc2)cc1)C(=O)NO)C(F)(F)F [LPC-083]
compromised inhibitory effect (Ki*) over parent compound LPC-037 (Escherichia coli LpxC; E. coli LpxC): ninefold
inhibition constant worse than LPC-011 (Escherichia coli LpxC; E. coli LpxC): fivefold
Ki (Escherichia coli LpxC; [6]): 125 ± 4 pM
MIC (Escherichia coli W3110): 0.1 µg/mL (≈ 0.225 µM)

CC(C)(O)[C@H](NC(=O)c1ccc(C#CC#Cc2ccc(N)cc2)cc1)C(=O)NO [LPC-037]
Ki (Escherichia coli LpxC; [6]): 14 ± 1 pM

CC(C)(N)[C@H](NC(=O)c1ccc(C#CC#Cc2ccc(N)cc2)cc1)C(=O)NO [LPC-040]
Ki (Escherichia coli LpxC; [6]): 12 ± 1 pM

C[C@@](O)(C(F)F)[C@H](NC(=O)c1ccc(C#CC#Cc2ccc(N)cc2)cc1)C(=O)NO [LPC-058]
enhancement of potency (Ki*) over CHIR-090 (Escherichia coli LpxC; E. coli LpxC): 44 fold
enhancement of potency (Ki*) over LPC-011 (Escherichia coli LpxC; E. coli LpxC): 7 fold
Ki (Escherichia coli LpxC; [6]): 3.5 ± 0.2 pM
k5 (forward rate from EI to EI*) (Escherichia coli LpxC; [7]): 0.39 ± 0.02 min⁻¹
k6 (reverse rate from EI* to EI) (Escherichia coli LpxC; [7]): 0.0014 ± 0.0001 min⁻¹
Ki (Escherichia coli LpxC; fit of kobs vs inhibitor concentration, 30 μM substrate, 0.1 nM enzyme, Ki* constrained, read-out: Ki (inhibition constant of the initial encounter complex EI)): 973 ± 128 pM
Enhancement (MIC CHIR-090/MIC LPC-058) (Escherichia coli W3110; Escherichia coli W3110): 7.2
Enhancement (MIC LPC-011/MIC LPC-058) (Escherichia coli W3110; Escherichia coli W3110): 2.2
Enhancement (MIC CHIR-090/MIC LPC-058) [1]: 5.0
Enhancement (MIC LPC-011/MIC LPC-058) [1]: 2.0
MIC [1]: 0.167 µg/mL (≈ 0.391 µM)
Enhancement (MIC CHIR-090/MIC LPC-058) [2]: 12
Enhancement (MIC LPC-011/MIC LPC-058) [2]: 2.8
MIC [2]: 0.021 µg/mL (≈ 0.0491 µM)
Enhancement (MIC CHIR-090/MIC LPC-058) [3]: 31
Enhancement (MIC LPC-011/MIC LPC-058) [3]: 3.9
MIC [3]: 0.016
Enhancement (MIC CHIR-090/MIC LPC-058) [4]: 13
Enhancement (MIC LPC-011/MIC LPC-058) [4]: 3.8
MIC [4]: 0.0026
Enhancement (MIC CHIR-090/MIC LPC-058) (Enterobacter cloacae): 12
Enhancement (MIC LPC-011/MIC LPC-058) (Enterobacter cloacae): 2.0
MIC (Enterobacter cloacae): 0.026
Enhancement (MIC CHIR-090/MIC LPC-058) (Morganella morganii): 55
Enhancement (MIC LPC-011/MIC LPC-058) (Morganella morganii): 2.0
MIC (Morganella morganii): 0.019 g/mL
Enhancement (MIC CHIR-090/MIC LPC-058) (Proteus mirabilis): 32
Enhancement (MIC LPC-011/MIC LPC-058) (Proteus mirabilis): 5.0
MIC (Proteus mirabilis): 0.026
Minimal chlamydiacidal concentration (MCC), listed in MIC column (Chlamydia trachomatis): 0.08
Enhancement (MIC CHIR-090/MIC LPC-058) (Chlamydia trachomatis; MCC): 100
Enhancement (MIC LPC-011/MIC LPC-058) (Chlamydia trachomatis; MCC): 6.0
MIC ([5]; Acinetobacter baumannii): 0.39 µg/mL (≈ 0.912 µM)
Enhancement (MIC CHIR-090/MIC LPC-058) ([5]; Acinetobacter baumannii 17978): > 128
Enhancement (MIC LPC-011/MIC LPC-058) ([5]; Acinetobacter baumannii 17978): 25

C[C@@H](O)[C@H](NC(=O)c1ccc(C#CC#Cc2ccc(N)cc2)cc1)C(=O)NO [LPC-011]
MIC (Escherichia coli W3110): 0.04 µg/mL (≈ 0.106 µM)
MIC [2]: 0.06 µg/mL (≈ 0.159 µM)
MIC [3]: 0.063
MIC [4]: 0.01
MIC (Enterobacter cloacae): 0.052
MIC (Morganella morganii): 0.039 g/mL
MIC (Proteus mirabilis): 0.13
